Results reported in patent US20170266166A1, “Compositions and Methods to Inhibit Estrogen Receptor Beta for the Treatment of Renal Cell Carcinoma” (University of Rochester, priority 2014, published 2017).

How the values were obtained:
[1] = system: 786-O cells; assay: RCC cell growth, MTT assay; type: cell-based, human; settings: 10 nM, 786-O (high endogenous ERβ), MTT and colony forming assays
Procedure: (§1) FIG. 2, comprising FIGS. 2A-2F, depicts the results of experiments comparing ERβ expression in RCC cell lines and estrogen/ERβ effects on RCC cell growth. […] Expression of ERα was not detected in tested RCC cells. ERβ has the highest expression level in 786-O and lowest in A498. Breast cancer cell MCF-7 was used as a positive control. […] The growth rate of 786-O cells (with high endogenous ERβ) is increased in the presence of 17β-estradiol (10 nM) as compared with the control Etoh). […] FIGS. 2D-2E show changes in ERβ expression levels can affect the RCC cell growth. A lentivirus system was used to knock-down ERβ in RCC 786-O cells (by lenti-ERβ-shRNA), or to increase ERβ in A498 cells (by lenti-ERβ cDNA). Cell growth rates were determined by MTT assay.
(§2) RCC cells were seeded in 24-well plates (5000 cells/200 μl medium per well) and cultured for 0, 2, 4 and 6 days. Cells were harvested and cell number was calculated using MTT agent.
(§3) To examine the ERβ roles on RCC cell growth, the lentiviral ERβ cDNA and shRNA were used to change the expression of ERβ in 2 RCC cell lines, A498 (low endogenous ERβ) and 786-O (high endogenous ERβ), respectively. 10 nM […] estradiol (E2) was used to activate ERβ and examine the growth changes using MTT assay and colony forming assays. […] Supportively, knocking-down ERβ by ERβ-siRNA in RCC 786-O cells suppressed cell growth, sh-Luciferase as control (FIG. 2D). […]

[2] = system: A498 cells; assay: RCC cell growth, MTT assay; type: cell-based, human; settings: 10 nM, A498 (little ERβ)
Procedure: as §1, §2, §3

[3] = system: 786-O cells; assay: transwell RCC cell migration assay; type: cell-based, human; settings: for cell migration: 10 nM
[4] = system: A498 cells; assay: transwell RCC cell migration assay; type: cell-based, human
[5] = system: 786-O tumors; assay: anti-estrogen treatment of mice carrying 786-O RCC tumors (IVIS imaging, tumor weight, metastasis); type: in vivo; settings: for mice that developed distal metastasis: ip injection every other day, after 4 weeks of treatments, 3 of the 6 DMSO treated mice developed metastasis; for RCC tumor growth and metastasis (IVIS imaging, tumor weights): mouse RCC model, result in words
Text: Results of IVIS imaging, tumor size, and tumor weights are shown and compared.
The Fe-NTA transformed human renal carcinoma cell lines 7860.sh-ERβ/7860.sh-Luc and A498 hERβ/Vec were directly injected into the renal capsule of nude mice. After anesthesia, the back skin was lifted with a pair of blunt forceps and cut along the midline with a pair of scissors creating an incision approximately an inch in length; the dermis was separated from the underlying body wall on both sides of the incision for bilateral grafting or on one side only (blunt dissection). The animal was placed on its side, and the location of the kidney identified by viewing it through the body wall. A small incision ([…]) was made in the body wall just slightly longer than the long axis of the kidney. The exteriorized kidney was allowed to rest on the body wall. We used a syringe to inject the cells at the cell numbers of 1×10^6, both with matrigel (1:1) under the renal capsule.
ERβ antagonists, PHTPP and ICI, inhibit RCC cell growth and cell invasion Knockdown of ERβ reduced RCC cells growth and Invasion. It was then investigated whether PHTPP (ERβ selective antagonist) and ICI 182,780 (ICI, anti-estrogen) have therapeutic effects to reduce RCC tumor growth and metastasis in vivo. […] Also, both anti-estrogens have been used to treat mouse breast cancer models. The same doses of PHTPP and ICI were applied in mice carrying 786-O tumors DMSO (mock control), PHTPP and ICI were administrated via intraperitoneal (ip) injection every other day. IVIS imaging was applied to monitor tumor growth and distal metastasis. After 4 weeks of treatments, mice were sacrificed for tumor analysis. […] All the mice had developed RCC by the time they were sacrificed. […] In addition to PHTPP and ICI, tamoxifen was also tested on mouse RCC growth.

[6] = molecular target: ERβ (Homo sapiens, UniProt Q92731); settings: 10 μM, previous reports; cited from earlier work
[7] = system: 786-O cells; assay: transwell matrigel RCC cell invasion assay; type: cell-based, human; settings: 10 μM
Procedure: (§4) The migration or invasion capability of RCC cells was determined using the transwell assay. In brief, 1×105 (invasion)/2-5×104 (migration) cells were harvested and seeded with serum-free media into the upper chamber with or without coated Matrigel with (BD Corning). The migrated or invaded cells were fixed by 4% paraformaldehyde and stained with 1% toluidine blue. Cell numbers were counted in five randomly chosen microscopic fields (100×) per membrane. When necessary, cells were treated with 10 μM of TGFβR-1 inhibitor (SB525334 Selleckchem) for 48 hr.
(§5) To further validate the ERβ→TGFβ1→pSMAD3 pathway, an interruption approach was applied by using TGFβR-1 inhibitors (10 μM) for the cell invasion assay in both 786-O and A498 cells (FIG. 5D).

[8] = system: A498 cells; assay: transwell matrigel RCC cell invasion assay; type: cell-based, human; settings: 10 μM
Procedure: as §4, §5

[9] = system: pSMAD3; assay: Western blot after TGFβR-1 inhibitor treatment; type: cell-based, human; settings: after treatment of TGFβR-1 inhibitor, FIG. 5D
Procedure: FIG. 5E illustrates the experimental setting for treatment of RCC with TGFβR-1 inhibitor and migration. RCC cells were cultured for 48 hr and then treated with 10 μM TGFβR-1 inhibitor for 6 hr. RCC cells were then trypsinized and seeded in the upper transwell (5×10^4/well) for 24 hr to determine the migration rate. […] Quantification of migrated cells was shown on the right panel.
The expressions of ERs were determined by the Western blot according to the previous study (Hsu et al., Carcinogenesis, 2014, 35:651-61). Rabbit anti-ERβ polyclonal antibody (GTX 110607 GeneTex Corporation), mouse anti-GAPDH monoclonal antibody (Santa Cruz Biotechnology), rabbit anti-TGFB1 polyclonal antibody (Abcam Biotechnology), and mouse anti-SMAD3 monoclonal antibody (Abcam Biotechnology) were all used and all at 1:1,000 dilution in blocking buffer. The immunopositive bands were visualized with an ECL chemiluminescent detection system (Thermo Scientific, Rockford, Ill.), and the images were transferred to the Bio-rad imaging system. The Western analysis was scored positive if the band of interest was present at the expected molecular weight appropriate for each marker protein. All analyses were done in duplicate.
as §5

[10] = system: advanced RCC; settings: 1990's clinical trials; cited from earlier work
[11] = mice carrying 786-O tumors, ip every other day, 4 weeks

ERβ, sequence (Q92731 whole entry): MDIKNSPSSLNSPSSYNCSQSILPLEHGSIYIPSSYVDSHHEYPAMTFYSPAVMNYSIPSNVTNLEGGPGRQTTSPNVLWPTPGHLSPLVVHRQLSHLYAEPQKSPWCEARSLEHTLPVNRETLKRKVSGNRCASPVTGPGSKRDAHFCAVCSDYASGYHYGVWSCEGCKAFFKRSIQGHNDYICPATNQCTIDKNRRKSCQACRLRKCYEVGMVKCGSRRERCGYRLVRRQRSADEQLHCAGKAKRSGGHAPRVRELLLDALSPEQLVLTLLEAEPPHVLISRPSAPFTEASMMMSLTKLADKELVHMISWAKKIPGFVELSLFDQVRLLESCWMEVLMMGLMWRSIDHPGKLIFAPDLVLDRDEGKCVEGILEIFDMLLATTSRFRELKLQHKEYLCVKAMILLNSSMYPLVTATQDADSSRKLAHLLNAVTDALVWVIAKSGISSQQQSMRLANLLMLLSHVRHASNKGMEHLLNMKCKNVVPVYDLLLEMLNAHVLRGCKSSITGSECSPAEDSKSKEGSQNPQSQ

C[C@]12CC[C@@H]3c4ccc(O)cc4CC[C@H]3[C@@H]1CC[C@@H]2O [E2, 17β-estradiol]
cell growth [1]: significantly enhanced the cell growth
cell growth [2]: little E2 stimulating effect
cell migration ([3]; 786-O sh-Luc control cells): could enhance
cell migration ([3]; ERβ knockdown 786-O cells (786-O-shERβ)): little effect
cell migration ([4]; 10 nM, A498-ERβ cells): further stimulated the migration

C[C@]12CC[C@@H]3c4ccc(O)cc4C[C@@H](CCCCCCCCC[S+]([O-])CCCC(F)(F)C(F)(F)F)[C@H]3[C@@H]1CC[C@@H]2O (stereo partly drawn) [ICI 182,780, 7α-[9-(4,4,5,5,5-pentafluoropentylsulfinyl)nonyl]estra-1,3,5(10)-triene-3,17β-diol]
body weights versus control [5, 11]: higher body weights than control
mice that developed distal metastasis ([5]; mice carrying 786-O tumors): around 17%
RCC tumor growth and metastasis (IVIS imaging, tumor weights) ([5]; in vivo): inhibit the RCC tumor growth and metastasis
signs of toxicity or adverse treatment side effects ([5]; mouse, in vivo, ip): without any signs of toxicity or adverse treatment side effects
estrogen induced ERβ transactivation on EREluciferase reporter activity [6]: effectively inhibit

Oc1ccc(-c2c(-c3ccccc3)nn3c(C(F)(F)F)cc(C(F)(F)F)nc23)cc1 [PHTPP]
body weights versus control [5, 11]: higher body weights than control
signs of toxicity or adverse treatment side effects [5, 11]: without any signs of toxicity or adverse treatment side effects
mice that developed distal metastasis ([5]; mice carrying 786-O tumors): around 17%
RCC tumor growth and metastasis (IVIS imaging, tumor weights) ([5]; in vivo): inhibit the RCC tumor growth and metastasis
estrogen induced ERβ transactivation on EREluciferase reporter activity [6]: effectively inhibit

Cc1cccc(-c2[nH]c(C(C)(C)C)nc2-c2ccc3nccnc3c2)n1 [TGFβR-1 inhibitor]
migration ability ([3]; 10 μM for 48 hr, 786-O sh-Luc (higher ERβ)): dramatically attenuated
migration ability ([4]; 10 μM for 48 hr, A498 ERβ (higher ERβ)): dramatically attenuated
ERβ-enhanced invasion [7]: suppression of ERβ-enhanced invasion
ERβ-enhanced invasion [8]: suppression of ERβ-enhanced invasion
pSMAD3 level by Western blot [9]: reduced pSMAD3

CC/C(=C(\c1ccccc1)c1ccc(OCCN(C)C)cc1)c1ccccc1 [tamoxifen]
inhibition of tumor size compared to the control group ([5]; RCC in vivo, FIG. 9): about 40%
efficacy to inhibit ERβ activity ([5]; compared to ICI 182,780 and PHTPP, FIG. 9): ~40%
RCC tumor growth and metastasis (IVIS imaging, tumor weights) ([5]; in vivo): less effective on inhibiting RCC tumor
therapeutic efficacy in advanced RCC [10]: no significant therapeutic efficacy
